The test system of data set [1] is Hippocampal Slices. The data set is described as follows: Recovery of synaptic activity (EPSP) in hippocampal slices after hypoxia-hypoglycemia (Example 4). Particulars: for recovery of EPSPs, overall effect: concentrations tested in Table 2. The class given is cell-based, rat (male Wistar). The procedure: Young male Wistar rats (150 to 250 g) were anesthetized with ketamine (200 mg/kg IP) and ether and were perfused transcardially with cold, oxygenated, low sodium-containing physiological buffer solution (252 mM sucrose, 3.5 mM KCl, 1.0 mM MgSO4, 20 mM CaC1, 26 mM NaHCO3, 1.25 mM NaH2 PO4, and 10 mM glucose) with 50 μM ketamine added. Brains were removed and hippocampi carefully excised. Hippocampi were sliced transversely at 450 μm and transferred into cold (4° C.) low-sodium buffer solution gassed with 95% O2, 5% CO2 at 31° C. After 45 minutes slices were transferred to oxygenated normal physiological solution (126 mM NaCl, 3.5 mM KCl, 1.0 mM MgSO4, 2.0 mM CaCl2, 20 mM NaHCO3, 1.25 mM NaH2 PO4, and 10 mM glucose) at 31° C. for at least 1 hour before experiments began. After preincubation, slices were transferred to a heated (36° C.), gassed incubation chamber where they were continuously superfused with gassed normal physiological solution. Evoked extracellular synaptic potentials (EPSPs) were obtained using glass micropipettes placed approximately 100 μm into the slice. Electrical stimulation was applied once per minute to the stratum radiatum by insulated paired nichrome wires (60 μm diameter). Stimuli consisted of 150 μA pulses lasting 0.4 msec. […] Data from a slice were used only if EPSP amplitude was greater than 2.0 mV before hypoxia-hypoglycemia.
Evoked potentials were recorded and analyzed with a digital computer interface. Experiments were started by recording for several minutes under normal conditions (95% O2, 5% CO2, 10 mM glucose). Then drug was added to the superfusion solution (or normal solution was continued in control experiments). After 10 minutes of drug superfusion, hypoxia-hypoglycemia was induced by switching to superfusion solution containing added drug with low glucose (2 mM) that was equilibrated with 95% N2 and 5% CO2. At the same time the slice chamber gas was switched to 95% N2 and 5% CO2. Hypoxia-hypoglycemia was continued for 12 minutes. After 12 minutes, 95% O2 and 10 mM glucose were returned to the slices and the superfusing solution. Following 15 minutes of reoxygenation, the experiment was ended. EPSPs were considered recovered if they returned to at least half of their original amplitude. The percentage of slices with recovered EPSPs were calculated for each condition.
This study was identical in design to Example 3 except that during the hypoxic period of 12 minutes, glucose was reduced from 10 mM to 2 mM rather than from 10 mM to zero as in Example 3.

Data set [2] deals with Hippocampal Slices. In words: Effect on synaptic potentials / presynaptic action potential in slices before hypoxia. The class given is cell-based, rat (male Wistar). The following applies: 500 μM. How it is done:
Young male Wistar rats (150 to 250 g) were anesthetized with ketamine (200 mg/kg IP) and ether and were perfused transcardially with cold, oxygenated, low sodium-containing physiological buffer solution (252 mM sucrose, 3.5 mM KCl, 1.0 mM MgSO4, 20 mM CaC1, 26 mM NaHCO3, 1.25 mM NaH2 PO4, and 10 mM glucose) with 50 μM ketamine added. Brains were removed and hippocampi carefully excised. Hippocampi were sliced transversely at 450 μm and transferred into cold (4° C.) low-sodium buffer solution gassed with 95% O2, 5% CO2 at 31° C. After 45 minutes slices were transferred to oxygenated normal physiological solution (126 mM NaCl, 3.5 mM KCl, 1.0 mM MgSO4, 2.0 mM CaCl2, 20 mM NaHCO3, 1.25 mM NaH2 PO4, and 10 mM glucose) at 31° C. for at least 1 hour before experiments began. After preincubation, slices were transferred to a heated (36° C.), gassed incubation chamber where they were continuously superfused with gassed normal physiological solution. Evoked extracellular synaptic potentials (EPSPs) were obtained using glass micropipettes placed approximately 100 μm into the slice. […]
Evoked potentials were recorded and analyzed with a digital computer interface. […] The percentage of slices with recovered EPSPs were calculated for each condition.
Excitatory synaptic potential (EPSP) amplitude was measured before and during drug treatment in the 10-minute period preceding reduced oxygen and glucose. […]

For data set [3] the following is noted: in vivo; cited from earlier work.
Data set [4] concerns neuroprotective capabilities. In words: Neuroprotective capabilities in vitro (general statement). The class given is cell-based.
Data set [5] deals with voltage-dependent sodium channels. Particulars: cited from earlier work.
The test system of data set [6] is neuronal damage from ischemia. Particulars: in vitro and in vivo; cited from earlier work.
In data set [7] the test system is Neuronal/Glial Cortical Cultures. The data set is described as follows: Hypoxia-induced lactate dehydrogenase release (cell injury) in neuronal/glial cortical cultures. The class given is cell-based, rat (Sprague Dawley). Particulars: Rattus norvegicus, read-out: % Inh (percent inhibition of the release of lactate dehydrogenase in comparison to hypoxic control cultures). How it is done: An assay was conducted to compare the inhibitory action of various compounds which are the subject of the present invention. The assay measured the oxygen deprivation-induced neuronal cell death from various cortical cultures. Lactate dehydrogenase (LDH) is a cytosolic enzyme that is only present in the extracellular medium if cell membranes rupture, indicating cell death. Therefore, LDH release into the culture medium is a convenient assay of cell death. The results of Table 3 indicate that each of the compounds tested decreased neuronal cell death from hypoxia in vitro.
The uteri of Sprague Dawley rats in their 18th day of fetal gestation were removed under halothane anesthesia and placed in a chilled bath of magnesium and calcium-free Hank's balanced salt solution (HBSS). Cortical brain hemispheres were removed from individual fetuses and digested in 0.1% trypsin in HBSS for 15 minutes at room temperature. Digested tissue was washed three times with HBSS then dissociated into a single cell suspension by trituration with a glass pipette. […] One hundred microliters of this cell suspension was pipetted into individual wells of 96-well tissue culture plates previously coated with poly-L-lysine, then stored in a humidified incubator (37° C., 3% CO2). Glial cell growth was stopped by the addition of 100 μL of 45% DME, 45% HAM F12, and 10% Horse serum (10/0 DME/F12) containing 15 μg/mL of 5-fluoro-2-deoxyuridine and 35 μg/mL of uridine, 3 days after the initial plating. Cultures were fed at 2- or 3-day intervals thereafter by replacing 100 μL of spent medium with an identical volume of fresh 10/0 DME/F12.
Sixteen-day-old cultures were prepared for experiments by removing growth medium from each culture well and rinsing once with 250 μL of Mg^++ -free HBSS containing 1.8 mM Ca^++ and 1 g/L D-glucose (0 Mg-HBSS) Control and test agent solutions, prepared using 0 Mg-HBSS medium, were dispensed in 50 μL aliquots into individual test wells (Total volume/well=50 μL). All liquid medium preparations to this point were equilibrated with […], 5% CO2. Plates were placed into a 37° C., humidified, triple-gas incubator with O2 and CO2 levels maintained at 1% and 10%, respectively. Plates were removed after 7.5 hours of oxygen deprivation and restored to normoxic conditions (20% O2 /10% CO2, 37° C.) following a 50 μL addition to each well of appropriate control or test agent solutions containing 1.8 mM Ca^++, 1.6 mM Mg^++, and 7.0 g/L D-glucose. Final medium concentrations of 1.8 mM Ca^++, 0.8 mM Mg^++, and 4 g/L D-glucose were present during the reoxygenation period.
Medium concentrations of lactate dehydrogenase (LDH), a cytosolic enzyme normally retained by cells but released upon cell death, were determined for each well following an additional 16.5-hour normoxic exposure period. Individual 25 μL medium specimens were collected from each well and placed into wells of a clean 96-well microtiter plate containing 225 μL of 0.1 M KPO4 buffer (pH=7.5 at 25° C.) and 30 μg NADH (reduced […] adenine dinucleotide). After 10-minute incubation at 37° C., 30 μL of 2.4 mM sodium pyruvate was added to each well and plates were gently shaken to mix solution. Plates were immediately placed into a Multiscan MCC/340 plate reader and scanned for […] (excitation at 340 nm) for 1 minute at 5-second intervals. A kinetic analysis of the change in medium absorbance resulting from shifts in NADH concentrations was used, in combination with factors to correct for temperature, light path, and volume adjustments to determine medium LDH concentrations (IU/mL). Normoxic control baseline LDH levels were subtracted from both hypoxic control and test agent values prior to determining test agent effectiveness in preventing oxygen deprivation-induced injury.

Data set [8] has as its system calcium channels. The following applies: concentrations similar to those tested; cited from earlier work.

In the case of `CCN(CC)CC(=O)Nc1c(C)cccc1C` [Lidocaine, lidocaine], the “Number Slices Recovered / Number Slices Tested (≥50% EPSP amplitude recovery after reoxygenation)” value in data set [1] (50 μM) is recorded as 5/9; in data set [1] (200 μM), 9/10. Also, the “protection from loss of EPSPs” value in data set [1] (200 μM) is “almost complete protection”. Besides, the entries for the “recovery of EPSPs, overall effect” value in data set [1] and in data set [1] (listed as lidocaine) were “improves recovery of EPSPs at both concentrations tested” and “enhanced recovery of EPSPs”, respectively. In addition, the “effect on presynaptic action potential and EPSPs” value in data set [2] is “reversibly reduced both presynaptic action potential and EPSPs”. Further, the peripheral hypotensive effects result in data set [3] is on record as “peripheral hypotensive effects”. The neuroprotective capabilities entry in data set [4] is reported as “shown in vitro to have neuroprotective capabilities”. Moreover, in data set [5], the “action on voltage-dependent sodium channels” value was “more selective for sodium channels”.
In the case of `O=C1NC(=O)C(c2ccccc2)(c2ccccc2)N1` [Phenytoin, phenytoin], the “Number Slices Recovered / Number Slices Tested (≥50% EPSP amplitude recovery after reoxygenation)” value in data set [1] (5 μM) was 0/8; in data set [1] (20 μM), 5/12; in data set [1] (50 μM) it was 3/9. In data set [1], the “recovery of EPSPs, overall effect” value is “enhanced recovery of EPSPs”. In addition, the “effect on neuronal damage from ischemia” value in data set [6] was “preventing neuronal damage from ischemia both in vitro and in vivo”. Moreover, the inhibition at 30 µM in data set [7] (30 μM) was found to be 78%. Also, in data set [7] (100 μM), the inhibition at 100 µM stood at 82%. Moreover, the neuroprotective capabilities entry in data set [4] is “shown in vitro to have neuroprotective capabilities”. The “action on calcium channels” value in data set [8] is on record as “blocks a variety of calcium channels”.

Source of the values: patent US6133299A, “Methods for treating neurodegenerative diseases and disorders using N-(2,6-disubstituted aromatic)-N'-pyridinyl ureas and other anticonvulsant compounds” (Warner-Lambert Company, priority 1993, dated 2000).
